In patent US9085555B2, “Complement pathway modulators and uses thereof” (priority 2011, dated 2015) one finds IC50 data, which are given here for 27 compounds.

Sequence of Factor D (P00746 26-253): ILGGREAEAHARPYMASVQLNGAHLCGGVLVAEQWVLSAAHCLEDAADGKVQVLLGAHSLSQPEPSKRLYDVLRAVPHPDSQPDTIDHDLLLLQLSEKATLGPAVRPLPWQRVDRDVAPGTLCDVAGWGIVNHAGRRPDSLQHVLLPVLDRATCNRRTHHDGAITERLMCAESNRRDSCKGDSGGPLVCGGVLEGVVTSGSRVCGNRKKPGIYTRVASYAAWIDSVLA

The assay concerns the target Factor D (Homo sapiens (Human), UniProt P00746). Description: biochemical. Format: biochemical. Particulars: read-out: IC50.
Turning to `NC(=O)n1cc(NC(=O)N2C[C@H](F)C[C@H]2C(=O)NCc2cc(C(=O)N3CCOCC3)cc(Cl)c2F)c2ccccc21` [Example 250, (2S,4R)-4-Fluoro-pyrrolidine-1,2-dicarboxylic acid 1-[(1-carbamoyl-1H-indol-3-yl)-amide] 2-[3-chloro-2-fluoro-5-(morpholine-4-carbonyl)-benzylamide]], the IC50 worked out at 549 nM.
With `NC(=O)n1cc(NC(=O)N2C[C@H](F)C[C@H]2CNS(=O)(=O)c2ccccc2)c2ccccc21` [Example 105, 3-{[(2S,4R)-2-(Benzenesulfonylamino-methyl)-4-fluoro-pyrrolidine-1-carbonyl]-amino}-indole-1-carboxylic acid amide] the figure was 800 nM.
Then `NC[C@@]1(F)C[C@@H](C(=O)NCc2c(F)ccc(Cl)c2F)N(C(=O)Cc2cn(C(N)=O)c3ccccc23)C1` [Example 471, 3-{2-[(2S,4S)-4-Aminomethyl-2-(3-chloro-2,6-difluoro-benzylcarbamoyl)-4-fluoro-pyrrolidin-1-yl]-2-oxo-ethyl}-indole-1-carboxylic acid amide], with 89 nM; and `NC(=O)n1cc(NC(=O)N2[C@@H]3C[C@@H]3C[C@H]2C(=O)NCc2cccc(Cl)c2F)c2ccc(CC(=O)O)cc21` [Example 378, (1-Carbamoyl-3-{[(1R,3S,5R)-3-(3-chloro-2-fluoro-benzylcarbamoyl)-2-aza-bicyclo[3.1.0]hexane-2-carbonyl]-amino}-1H-indol-6-yl)-acetic acid], with 24 nM; and `NC(=O)n1cc(NC(=O)N2C[C@@H](N)C[C@H]2C(=O)NCc2ccc(Cl)s2)c2ccccc21` [Example 66, (2S,4S)-4-Amino-pyrrolidine-1,2-dicarboxylic acid 1-[(1-carbamoyl-1H-indol-3-yl)-amide] 2-[(5-chloro-thiophen-2-ylmethyl)-amide]], with 65 nM.
Then `COC(=O)C(NC(=O)[C@@H]1C[C@H](N)CN1C(=O)Nc1cn(C(N)=O)c2ccccc12)C(C)C` (stereo in doubt) [Example 94, (R)-2-{[(2S,4S)-4-Amino-1-(1-carbamoyl-1H-indol-3-ylcarbamoyl)-pyrrolidine-2-carbonyl]-amino}-3-methyl-butyric acid methyl ester], with 11000 nM; and `NCc1ccc(-c2cccc(NC(=O)[C@@H]3CCCN3C(=O)Nc3cn(C(N)=O)c4ccccc34)c2)cc1` [Example 400, (S)-Pyrrolidine-1,2-dicarboxylic acid 2-[(4′-aminomethyl-biphenyl-3-yl)-amide]1-[(1-carbamoyl-1H-indol-3-yl)-amide]], with 3950 nM.
In the case of `NC(=O)n1cc(NC(=O)N2C[C@@H](N)C[C@H]2C(=O)NCCc2cccc(Cl)c2)c2ccccc21` [Example 86, (2S,4S)-4-Amino-pyrrolidine-1,2-dicarboxylic acid 1-[(1-carbamoyl-1H-indol-3-yl)-amide] 2-{[2-(3-chloro-phenyl)-ethyl]-amide}], the IC50 turned out to be 14300 nM.
With `NC(=O)n1cc(NC(=O)N2[C@H](C(=O)NCc3cccc(Cl)c3F)C[C@@]3(CO)C[C@@H]23)c2ccccc21` [Example 358, 1R,3S,5S)-5-Hydroxymethyl-2-aza-bicyclo[3.1.0]hexane-2,3-dicarboxylic acid 2-[(1-carbamoyl-1H-indol-3-yl)-amide]3-(3-chloro-2-fluoro-benzylamide] the figure was 8 nM.
Then `NC(=O)n1cc(NC(=O)N2C3CC3C[C@H]2C(=O)NCc2cccc(Cl)c2F)c2ccc(O)cc21` (stereo partly drawn) [Example 392, 1R,3S,5R)-2-Aza-bicyclo[3.1.0]hexane-2,3-dicarboxylic acid 2-[(1-carbamoyl-6-hydroxy-1H-indol-3-yl)-amide]3-(3-chloro-2-fluoro-benzylamide], with 7 nM; and `COC[C@@H](NC(=O)[C@@H]1[C@H]2C[C@H]2CN1C(=O)Nc1cn(C(N)=O)c2ccccc12)c1cccc(Cl)c1F` [Example 245, (1S,2S,5R)-3-Aza-bicyclo[3.1.0]hexane-2,3-dicarboxylic acid 3-[(1-carbamoyl-1H-indol-3-yl)-amide] 2-{[(S)-1-(3-chloro-2-fluoro-phenyl)-2-methoxy-ethyl]-amide}], with 1050 nM; and `CCN(CC)Cc1cc(Cl)c(F)c(CNC(=O)[C@@H]2C[C@@H](F)CN2C(=O)Nc2cn(C(N)=O)c3ccccc23)c1` [Example 12, (2S,4R)-4-Fluoro-pyrrolidine-1,2-dicarboxylic acid 1-[(1-carbamoyl-1H-indol-3-yl)-amide] 2-(3-chloro-5-diethylamino-methyl-2-fluoro-benzyl-amide)], with 11100 nM.
Then `CO[C@H]1[C@@H](C(=O)NCc2cccc(Cl)c2F)N(C(=O)Cn2nc(C(C)=O)c3cnccc32)C[C@@H]1F` [Example 630, (2S,3S,4S)-1-[2-(3-Acetyl-pyrazolo[4,3-c]pyridin-1-yl)-acetyl]-4-fluoro-3-methoxy-pyrrolidine-2-carboxylic acid 3-chloro-2-fluoro-benzylamide], with 36 nM.
Take `NC(=O)n1cc(NC(=O)N2C[C@H](CO)C[C@H]2C(=O)NCc2cccc(Cl)c2F)c2ccccc21` [Example 352, 2S,4R)-4-Hydroxymethyl-pyrrolidine-1,2-dicarboxylic acid 1-[(1-carbamoyl-1H-indol-3-yl)-amide]2-(3-chloro-2-fluoro-benzylamide]: the IC50 came to 200 nM.
With `NC(=O)c1cc(NC(=O)N2CCC[C@H]2C(=O)Nc2cccc(OC(F)(F)F)c2)c2ccccn12` [Example 121, (S)-Pyrrolidine-1,2-dicarboxylic acid 1-[(3-carbamoyl-indolizin-1-yl)-amide]2-[(3-trifluoromethoxy-phenyl)-amide]] the figure was 1250 nM; with `NC(=O)n1cc(NC(=O)N2C[C@H](F)C[C@H]2C(=O)NC(C(=O)O)c2cccc(Cl)c2)c2ccccc21` (stereo partly drawn) [Example 246, {[(2S,4R)-1-(1-Carbamoyl-1H-indol-3-ylcarbamoyl)-4-fluoro-pyrrolidine-2-carbonyl]-amino}-(3-chloro-phenyl)-acetic acid], 2000 nM.
Consider `C[C@@H](NC(=O)[C@@H]1C[C@H](N)CN1C(=O)Nc1cn(C(N)=O)c2ccccc12)c1cccc(Cl)c1` [Example 69, (2S,4S)-4-Amino-pyrrolidine-1,2-dicarboxylic acid 1-[(1-carbamoyl-1H-indol-3-yl)-amide] 2-{[(R)-1-(3-chloro-phenyl)-ethyl]-amide}], for which the IC50 amounted to 1050 nM.
`CO[C@H]1[C@@H](C(=O)N[C@H](C)c2cccc(Cl)c2F)N(C(=O)Cn2nc(C(N)=O)c3cccnc32)C[C@@H]1F` [Example 643, 1-(2-{(2S,3S,4S)-2-[(R)-1-(3-Chloro-2-fluoro-phenyl)-ethylcarbamoyl]-4-fluoro-3-methoxy-pyrrolidin-1-yl}-2-oxo-ethyl)-1H-pyrazolo[3,4-b]pyridine-3-carboxylic acid amide]: the IC50 stood at 25 nM.
Take `CC(C)(C)OC(=O)Cc1ccc2c(NC(=O)N3[C@@H]4C[C@@H]4C[C@H]3C(=O)NCc3cccc(Cl)c3F)cn(C(N)=O)c2c1` [Example 127, (1-Carbamoyl-3-{[(1R,3S,5R)-3-(3-chloro-2-fluoro-benzylcarbamoyl)-2-aza-bicyclo[3.1.0]hexane-2-carbonyl]-amino}-1H-indol-6-yl)-acetic acid tert-butyl ester]: the IC50 turned out to be 3 nM.
With `CC(=O)c1cn(CC(=O)N2[C@@H]3C[C@@H]3C[C@H]2C(=O)NCc2cccc(Cl)c2F)c2ccc(C(=O)O)cc12` [Example 603, 3-Acetyl-1-{2-[(1R,3S,5R)-3-(3-chloro-2-fluoro-benzylcarbamoyl)-2-aza-bicyclo[3.1.0]hex-2-yl]-2-oxo-ethyl}-1H-indole-5-carboxylic acid] the figure was 1610 nM; with `CC(=O)c1nc(CC(=O)N2[C@@H]3C[C@@H]3C[C@H]2C(=O)N[C@H](CO)c2cccc(Cl)c2F)n2ccccc12` [Example 644, (1R,3S,5R)-2-[2-(1-Acetyl-imidazo[1,5-a]pyridin-3-yl)-acetyl]-2-aza-bicyclo [3.1.0]hexane-3-carboxylic acid [(S)-1-(3-chloro-2-fluoro-phenyl)-2-hydroxy-ethyl]-amide], 79 nM.
Then `CC(=O)c1cn(CC(=O)N2C[C@@](F)(CN)C[C@H]2C(=O)NCc2cccc(Cl)c2F)c2ccccc12` [Example 607, (2S,4S)-1-[2-(3-Acetyl-indol-1-yl)-acetyl]-4-aminomethyl-4-fluoro-pyrrolidine-2-carboxylic acid 3-chloro-2-fluoro-benzylamide], with 28 nM; and `COc1ccc2c(c1)c(C(C)=O)cn2CC(=O)N1CCCC[C@H]1C(=O)NCc1cccc(Cl)c1F` [Example 501, (S)-1-[2-(3-Acetyl-5-methoxy-indol-1-yl)-acetyl]-piperidine-2-carboxylic acid 3-chloro-2-fluoro-benzylamide], with 471 nM.
Then `COC(=O)[C@H]1C[C@@H](C(=O)NCc2cccc(Cl)c2F)N(C(=O)Nc2cn(C(N)=O)c3ccccc23)C1` [Example 200, (3S,5S)-1-(1-Carbamoyl-1H-indol-3-ylcarbamoyl)-5-(3-chloro-2-fluoro-benzylcarbamoyl)-pyrrolidine-3-carboxylic acid methyl ester], with 25 nM; and `NC(=O)n1cc(NC(=O)N2CCC[C@H]2CNS(=O)(=O)c2cccc(Cl)c2)c2ccccc21` [Example 112, 3-({(S)-2-[(3-Chloro-benzenesulfonylamino)-methyl]-pyrrolidine-1-carbonyl}-amino)-indole-1-carboxylic acid amide], with 550 nM; and `NC(=O)n1cc(NC(=O)N2CCC[C@H]2C(=O)Nc2cccc(OC(F)(F)F)c2)c2cc(O)ccc21` [Example 370, (S)-Pyrrolidine-1,2-dicarboxylic acid 1-[(1-carbamoyl-5-hydroxy-1H-indol-3-yl)-amide]2-[(3-trifluoromethoxy-phenyl)-amide]], with 95 nM.
As to `NC(=O)n1cc(CC(=O)N2[C@@H]3C[C@@H]3C[C@H]2C(=O)NCc2cccc(Cl)c2F)c2ccc(CCO)cc21` [Example 474, 3-{2-[(1R,3S,5R)-3-(3-Chloro-2-fluoro-benzylcarbamoyl)-2-aza-bicyclo[3.1.0]hex-2-yl]-2-oxo-ethyl}-6-(2-hydroxy-ethyl)-indole-1-carboxylic acid amide], the IC50 is 95 nM.
